According to patent publication EP2233463A1, “NEW COMPOUNDS ISOLATED FROM EXTRACT OF ANTRODIA CAMPHORATA” (Golden Biotechnology Corporation, priority 2007, dated 2009):
Converted amounts (≈) assume the structure as drawn.

Experiments:
Type in all cases: cell-based
[1] = test system: human breast-cancer cells, MDA-MB-231; assay: Ex vivo survival assay (MTT) for anti-breast cancer effects, MDA-MB-231; details: for IC50 value lower than that of crude extracts from A. camphorata: MDA-MB-231, relative to crude extracts (25.81 µg/ml); for IC50(µg/ml) MDA-MB-231: MDA-MB-231 cells, 48 hours incubation, MTT, 570 nm
Description: (§1) The NCI anti-cancer drug screen model was adopted to test the anti-cancer effect of the isolated compounds from example 1 in the present invention. The isolated Antroquinonol B and Antroquinonol C from example 1 were added into the culture media of human breast-cancer cells, MCF-7 or MDA-MB-231, to test for tumor cell survival. This survival assay was carried out with the widely known MTT (3-[4,5-dimethylthiazol-2-yl]2,5-diphenyltetrazolium bromide) assay. MCF-7 cell line is originated from primary breast cancer cells (early stage), sensitive to estrogen and therefore is estrogen-dependent, while MDA-MB-231 is insensitive to estrogen and therefore is estrogen-independent, which is a difficult tumor with a low survival rate. MTT assay is commonly used to determine cell proliferation, percent of viable cells, and cytotoxicity. 3-[4,5-dimethylthiazol-2-yl]2,5-diphenyltetrazolium bromide (MTT) is a yellow dye, which can be absorbed by the living cells and be reduced to purplish blue formazan crystals by succinate tetrazolium reductase in mitochondria. Formazan formation can therefore be used to assess and determine the survival rate of cells. The human breast-cancer cells, MCF-7 (purchased from the Bioresources Collection and Research Center (BCRC) with the accession number of BCRC60436) and MDA-MB-231 (purchased from National Health Research Institutes (NHRI) with the accession number of CCRC 60425) were cultivated in media containing fetal calf serum for 24 hours. The proliferated cells were washed once with PBS, then treated with 1x trypsin-EDTA and centrifuged at 1200 rpm for 5 minutes. The supernatant was discarded and the cell pellet was resuspended in 10 ml of fresh culture medium by gently shaking. The cells were placed in a 96-well plate. Total ethanol extracts of Antrodia camphorata without purification (the control group), Antroquinonol B or Antroquinonol C (the experimental group) were added into each of the 96 wells at the following concentrations: 30, 10, 3, 1, 0.3, 0.1 and 0.03 µg/ml, respectively. The cells were incubated at 37°C in a 5% CO2 incubator for 48 hours. MTT was added in a concentration of 2.5 mg/ml into each well in dark and incubated for 4 hours, followed by the addition of 100 µl of lysis buffer to stop the reaction. The plates were read on an ELISA reader at wavelength of 570 nm to determine the survival rates. Table 1 Results of ex vivo survival assay for inhibition of breast cancer cells

[2] = test system: human lung cancer cell A549; assay: Ex vivo survival assay (MTT) for anti-lung cancer effects, A549; details: for IC50 value lower than that of crude extracts from A. camphorata: A549, relative to crude extracts (13.21 µg/ml); for IC50 ( µg/ml ) A549: A549 cells, 48 hours incubation, MTT, 570 nm
Excerpt: MTT assay is commonly used to determine cell proliferation, percent of viable cells, and cytotoxicity. 3-[4,5-dimethylthiazol-2-yl]2,5-diphenyltetrazolium bromide (MTT) is a yellow dye, which can be absorbed by the living cells and be reduced to purplish blue formazan crystals by succinate tetrazolium reductase in mitochondria. Formazan formation can therefore be used to assess and determine the survival rate of cells. The NCI anti-cancer drug screen model was also employed to test the anti-lung cancer effect of the Antroquinonol B and Antroquinonol C in the present invention. The Antroquinonols isolated from example 1 were added into the culture media of human lung cancer cell A549 with the abovementioned MTT assay to analyze lung cancer cell survival rates. Human lung cancer cell A549 was obtained from the Bioresources Collection and Research Center (BCRC) of the Food Industry Research and Development Institute with an accession number of BCRC 60074. A549 cells were cultivated in media containing fetal calf serum for 24 hours. The proliferated cells were washed once with PBS, then treated with 1x trypsin-EDTA and centrifuged at 1200 rpm for 5 minutes. The supernatant was discarded and the cell pellet was resuspended in 10 ml of fresh culture medium by gently shaking. The cells were placed in a 96-well plate. Total ethanol extracts of Antrodia camphorata without purification (the control group), Antroquinonol B or Antroquinonol C (the experimental group) were added into each of the 96 wells at the following concentrations: 30, 10, 3, 1, 0.3, 0.1 and 0.03 µg/ml, respectively. The cells were incubated at 37°C in a 5% CO2 incubator for 48 hours. MTT was added in a concentration of 2.5 mg/ml into each well in dark and incubated for 4 hours, followed by the addition of 100 µl of lysis buffer to stop the reaction. The plates were read on an ELISA reader at wavelength of 570 nm to determine the survival rates. Table 2 Results of ex vivo survival assay for inhibition of lung cancer cells

[3] = test system: human prostate cancer cells, LNCaP; assay: Ex vivo survival assay (MTT) for anti-prostate cancer effects, LNCaP; details: for IC50 ( µg/ml ) LNCaP: LNCaP cells, 48 hours incubation, MTT, 570 nm; for IC50 value lower than the IC50 value of the control group: LNCaP, relative to control group (11.49 µg/ml)
Excerpt: (§2) MTT assay is commonly used to determine cell proliferation, percent of viable cells, and cytotoxicity. 3-[4,5-dimethylthiazol-2-yl]2,5-diphenyltetrazolium bromide (MTT) is a yellow dye, which can be absorbed by the living cells and be reduced to purplish blue formazan crystals by succinate tetrazolium reductase in mitochondria. Formazan formation can therefore be used to assess and determine the survival rate of cells.
(§3) The NCI anti-cancer drug screen model was also employed to test the anti-cancer effect of the Antroquinonols in the present invention. Antroquinonol B and Antroquinonol C isolated from […] were added into the culture media of human prostate cancer cells, LNCaP or DU-145, and prostate cancer cell survival rates were analyzed with the abovementioned MTT assay. LNCaP is originated from epithelial cells of prostate gland, which depends on androgen in the early stage and thus is androgen-dependent cancer cell. […] This recurrent type prostate cancer has no effective treatment so far. Both LNCaP and DU-145 were ordered from NHRI with accession numbers of CCRC 60088 and CCRC 60348 respectively.
(§4) The human prostate-cancer cells, LNCaP and DU-145, were cultivated in media containing fetal calf serum for 24 hours. The proliferated cells were washed once with PBS, then treated with 1x trypsin-EDTA and centrifuged at 1200 rpm for 5 minutes. The supernatant was discarded and the cell pellet was resuspended in 10 ml of fresh culture medium by gently shaking. The cells were placed in a 96-well plate. Total ethanol extracts of Antrodia camphorata without purification (the control group), Antroquinonol B or Antroquinonol C (the experimental group) were added into each of the 96 wells at the following concentrations: 30, 10, 3, 1, 0.3, 0.1 and 0.03 µg/ml, respectively. The cells were incubated at 37°C in a 5% CO2 incubator for 48 hours. MTT was added in a concentration of 2.5 mg/ml into each well in dark and incubated for 4 hours, followed by the addition of 100 µl of lysis buffer to stop the reaction. The plates were read on an ELISA reader at wavelength of 570 nm to determine the survival rates. Table 4 Results of ex vivo survival assay for inhibition of prostate cancer cells

[4] = test system: human breast-cancer cells, MCF-7; assay: Ex vivo survival assay (MTT) for anti-breast cancer effects, MCF-7; details: for IC50 value lower than that of crude extracts from A. camphorata: MCF-7, relative to crude extracts (11.13 µg/ml); for IC50(µg/ml) MCF-7: MCF-7 cells, 48 hours incubation, MTT, 570 nm
Description: as §1

[5] = test system: human hepatic-cancer cells, Hep 3B; assay: Ex vivo survival assay (MTT) for anti-hepatic cancer effects, Hep 3B; details: for IC50 ( µg/ml ) Hep3B: Hep 3B cells, 48 hours incubation, MTT, 570 nm; for IC50 value lower than that of crude extracts from A. camphorata: Hep 3B, relative to crude extracts (5.10 µg/ml)
Excerpt: (§5) MTT assay is commonly used to determine cell proliferation, percent of viable cells, and cytotoxicity. 3-[4,5-dimethylthiazol-2-yl]2,5-diphenyltetrazolium bromide (MTT) is a yellow dye, which can be absorbed by the living cells and be reduced to purplish blue formazan crystals by succinate tetrazolium reductase in mitochondria. Formazan formation can therefore be used to assess and determine the survival rate of cells. The NCI anti-cancer drug screen model was employed to test the anti-cancer effect of the Antroquinonol B and Antroquinono C in the present invention. The Antroquinonos isolated from example 1 were added into the culture media of human hepatic-cancer cells, Hep 3B or Hep G2, for tumor cell survival assay. Hepatic-cancer cells Hep 3B (BCRC 60434) and Hep G2 (BCRC 60025), were obtained from the Bioresources Collection and Research Center (BCRC) of the Food Industry Research and Development Institute. The human hepatic-cancer cells, Hep 3B and Hep G2, were cultivated in media containing fetal calf serum for 24 hours. The proliferated cells were washed once with PBS, then treated with 1x trypsin-EDTA and centrifuged at 1200 rpm for 5 minutes. The supernatant was discarded and the cell pellet was resuspended in 10 ml of fresh culture medium by gently shaking. The cells were placed in a 96-well plate. Total ethanol extracts of Antrodia camphorata without purification (the control group), Antroquinonol B or Antroquinonol C (the experimental group) were added into each of the 96 wells at the following concentrations: 30, 10, 3, 1, 0.3, 0.1 and 0.03 µg/ml, respectively. The cells were incubated at 37°C in a 5% CO2 incubator for 48 hours. MTT was added in a concentration of 2.5 mg/ml into each well in dark and incubated for 4 hours, followed by the addition of 100 µl of lysis buffer to stop the reaction. The plates were read on an ELISA reader at wavelength of 570 nm to determine the survival rates. Table 3 Results of ex vivo survival assay for inhibition of hepatic cancer cells

[6] = test system: human hepatic-cancer cells, Hep G2; assay: Ex vivo survival assay (MTT) for anti-hepatic cancer effects, Hep G2; details: for IC50 value lower than that of crude extracts from A. camphorata: Hep G2, relative to crude extracts (18.63 µg/ml); for IC50 ( µg/ml ) HepG2: Hep G2 cells, 48 hours incubation, MTT, 570 nm
Excerpt: as §5

[7] = test system: human prostate cancer cells, DU-145; assay: Ex vivo survival assay (MTT) for anti-prostate cancer effects, DU-145; details: for IC50 value lower than the IC50 value of the control group: DU-145, relative to control group (41.39 µg/ml); for IC50 ( µg/ml ) DU-145: DU-145 cells, 48 hours incubation, MTT, 570 nm
Excerpt: as §2, §3, §4

Row | Molecule | IC50 value lower than that of crude extracts from A. camphorata [1] | IC50(µg/ml) MDA-MB-231 [1] | IC50 value lower than that of crude extracts from A. camphorata [2] | IC50 ( µg/ml ) A549 [2] | IC50 ( µg/ml ) LNCaP [3] | IC50 value lower than the IC50 value of the control group [3] | IC50 value lower than that of crude extracts from A. camphorata [4] | IC50(µg/ml) MCF-7 [4] | IC50 ( µg/ml ) Hep3B [5] | IC50 value lower than that of crude extracts from A. camphorata [5] | IC50 value lower than that of crude extracts from A. camphorata [6] | IC50 ( µg/ml ) HepG2 [6] | IC50 value lower than the IC50 value of the control group [7] | IC50 ( µg/ml ) DU-145 [7]
1 | COC1=C(OC)[C@H](O)[C@H](C/C=C(\C)CC/C=C(/C)C/C=C/C(C)(C)O)[C@@H](C)C1=O [Antroquinonol B] | 66.21% | 8.72 µg/mL (≈ 21.4 µM) | 9.92% | 11.9 µg/mL (≈ 29.3 µM) | 5.67 µg/mL (≈ 13.9 µM) | 50.65% | 82.56% | 1.94 µg/mL (≈ 4.77 µM) | 1.21 µg/mL (≈ 2.98 µM) | 76.27% | 82.18% | 3.32 µg/mL (≈ 8.17 µM) | 75.55% | 10.12 µg/mL (≈ 24.9 µM)
2 | Antroquinonol C | 15.15% | 21.9 µg/mL | 37.85% | 8.21 µg/mL | 8.72 µg/mL | 24.11% | 89.49% | 1.17 µg/mL | 1.32 µg/mL | 74.12% | 72.52% | 5.12 µg/mL | 70.5% | 12.21 µg/mL
